Drawing on US20240101602A1, “ANTIMICROBIAL PEPTIDES AND METHOD OF PREVENTING OR TREATING INFECTION BY USING THE SAME” (priority 2020, published 2024), this text covers MFC, MIC and MBC for 15 compounds.

For assay [1], the system named is Botrytis cinerea. Format: cell-based. The procedure: (§1) The experiments were conducted in an optimal minimal medium for each pathogen. The media and growth conditions were described in Tables 2 and 3. MIC and MBC values were determined following the procedures described above. […] Fifty microliters of serially diluted peptides (2-fold the final concentration) were added in a 96-well polystyrene plate with 50 μL of the fungal spore suspension. […] The plates were incubated at an optimal temperature without shaking. […] MFC was determined as the lowest peptide concentration at which no fungal growth was observed.

Assay [2] relates to Staphylococcus epidermidis ATCC 14990.
Assay [3] has as its system Klebsiella pneumonia NTUH-K2044.
The subject of assay [4] is Staphylococcus aureus BCRC 10777.
Assay [5] has as its system Salmonella typhimurium NCHU 15721.
Assay [6] relates to Pseudomonas aeruginosa ATCC 9027.
Assay [7] relates to Eco DH5α. As to the kind of experiment: MIC and MBC by serial dilution in 96-well plate. The assay is classed as cell-based, Escherichia coli. The settings on record: Table 13. The method, then:
The effect of peptide length on the antimicrobial activity was investigated by deciding the minimal inhibitory concentration (MIC) and minimal bactericidal concentration (MBC) for each peptide against the pathogen with the media and growth conditions of phytopathogenic bacteria and E. coli as described in Table 1. Single bacterial colony grown on an optimal rich agar medium was picked, and each grew in 3 mL of the same rich liquid medium for 4 to 6 h.
For experiments carried out in the rich medium, the bacterial broth culture was then diluted in the same medium to give a final concentration of OD600=0.08, and then further diluted 100 folds in the same medium.
For experiments carried out in the minimal medium, the bacterial cells were collected from the bacterial liquid culture by centrifugation, re-suspended in an optimal minimal medium to give a final concentration of OD600=0.08, and then further diluted 100 folds in the same minimal medium.
Fifty microliters of serially diluted peptides (2-fold the final concentration) were added in a 96-well polystyrene plate with 50 μL of the bacterial culture. The final concentrations of peptides were 0, 2, 4, 8, 16 and 32 μg/mL. The plates were incubated at an optimal temperature without shaking.
MBC was determined as the lowest peptide concentration at which no colonies formed.

Assay [8] has as its system Erwinia chrysanthemi. The assay is classed as cell-based. The method, then:
(§2) The effect of peptide length on the antimicrobial activity was investigated by deciding the minimal inhibitory concentration (MIC) and minimal bactericidal concentration (MBC) for each peptide against the pathogen with the media and growth conditions of phytopathogenic bacteria and E. coli as described in Table 1. Single bacterial colony grown on an optimal rich agar medium was picked, and each grew in 3 mL of the same rich liquid medium for 4 to 6 h. For experiments carried out in the rich medium, the bacterial broth culture was then diluted in the same medium to give a final concentration of OD600=0.08, and then further diluted 100 folds in the same medium. For experiments carried out in the minimal medium, the bacterial cells were collected from the bacterial liquid culture by centrifugation, re-suspended in an optimal minimal medium to give a final concentration of OD600=0.08, and then further diluted 100 folds in the same minimal medium. Fifty microliters of serially diluted peptides (2-fold the final concentration) were added in a 96-well polystyrene plate with 50 μL of the bacterial culture. […] The plates were incubated at an optimal temperature without shaking. […] MBC was determined as the lowest peptide concentration at which no colonies formed. The experiments were conducted in an optimal minimal medium for each pathogen. The media and growth conditions were described in Tables 2 and 3. MIC and MBC values were determined following the procedures described above. […] Fifty microliters of serially diluted peptides (2-fold the final concentration) were added in a 96-well polystyrene plate with 50 μL of the fungal spore suspension.

The subject of assay [9] is Pectobacterium carotovorum subsp. carotovorum. Format: cell-based. The procedure:
as §2

For assay [10], the system named is Cgl FST02. The assay is classed as cell-based, Colletotricum gloeosporioides. The settings on record: Cgl FST02; optimal minimal media (Table 11). The method, then:
as §1

The mark [11] stands for this setting: Salmonella typhimurium NCHU 15721.
Setting [12] is: Pseudomonas aeruginosa ATCC 9027.
Setting [13] is: Bc, optimal minimal media (Table 11).

Converted amounts (≈) assume the structure as drawn. Read-outs that look alike come from different tables or passages of the source. Non-standard residues stand in square brackets, D forms with d. Residues, ends and D or L forms follow the SMILES beside them. *: point of attachment. Palmitoyl = CCCCCCCCCCCCCCCC(=O)*; Octanoyl = CCCCCCCC(=O)*; Orn = NCCC[C@H](N)C(=O)O; Hexanoyl = CCCCCC(=O)*; Butyryl = CCCC(=O)*

As usually defined, the MIC is the lowest concentration found to suppress growth. High values mean weaker potency, low ones greater potency. In assay [1], `CCCCCCCCCCCCCCCC(=O)N[C@@H](Cc1c[nH]c2ccccc12)C(=O)N[C@@H](CCCCN)C(=O)N[C@@H](CCCCN)C(=O)N[C@@H](CC(C)C)C(=O)N[C@@H](CCCCN)C(=O)N[C@@H](CCCCN)C(=O)N[C@@H](CC(C)C)C(=O)N[C@@H](CC(C)C)C(=O)N[C@@H](CCCCN)C(=O)N[C@@H](CCCCN)C(=O)N[C@@H](CC(C)C)C(=O)N[C@@H](CCCCN)C(=O)N[C@@H](CCCCN)C(=O)N[C@@H](CC(C)C)C(N)=O` [pepD2P] (Palmitoyl-WKKLKKLLKKLKKL-NH2) registered an MFC of 6.4 µg/mL (≈ 3.15 µM) and a minimal inhibitory concentration (MIC) of 6.4 µg/mL (≈ 3.15 µM).
Broadly, the MBC is the smallest concentration meeting the test's criterion for killing. Take `CCCC(=O)N[C@@H](Cc1c[nH]c2ccccc12)C(=O)N[C@@H](CCCCN)C(=O)N[C@@H](CCCCN)C(=O)N[C@@H](CC(C)C)C(=O)N[C@@H](CCCCN)C(=O)N[C@@H](CCCCN)C(=O)N[C@@H](CC(C)C)C(=O)N[C@@H](CC(C)C)C(=O)N[C@@H](CCCCN)C(=O)N[C@@H](CCCCN)C(=O)N[C@@H](CC(C)C)C(N)=O` [pepD3B] (Butyryl-WKKLKKLLKKL-NH2): the MBC in assay [2], in assay [3] and in [4] was 16 µg/mL (≈ 10.7 µM) each time. In addition, the minimum inhibitory concentration (MIC) in [2], in assay [3] and in [4] was 16 µg/mL (≈ 10.7 µM) in each case.
On to `CCCCCC(=O)N[C@@H](Cc1c[nH]c2ccccc12)C(=O)N[C@@H](CCCCN)C(=O)N[C@@H](CCCCN)C(=O)N[C@@H](CC(C)C)C(=O)N[C@@H](CCCCN)C(=O)N[C@@H](CCCCN)C(=O)N[C@@H](CC(C)C)C(=O)N[C@@H](CC(C)C)C(=O)N[C@@H](CCCCN)C(=O)N[C@@H](CCCCN)C(=O)N[C@@H](CC(C)C)C(N)=O` [pepD3H] (Hexanoyl-WKKLKKLLKKL-NH2), for which the minimum bactericidal concentration (MBC) in assay [2] was found to be 16 µg/mL (≈ 10.5 µM); in assay [5] (murium NCHU 15721), 32 µg/mL (≈ 21 µM); in [3] it was 16 µg/mL (≈ 10.5 µM); in [4] it was 8 µg/mL (≈ 5.25 µM); in [6] (ATCC 9027), 8 µg/mL (≈ 5.25 µM). Also, the minimum inhibitory concentration (MIC) was determined as 16 µg/mL (≈ 10.5 µM) in assay [2]; 16 µg/mL (≈ 10.5 µM) in [5] (murium NCHU 15721); 16 µg/mL (≈ 10.5 µM) in assay [3]; 8 µg/mL (≈ 5.25 µM) in assay [4]; 4 µg/mL (≈ 2.63 µM) in [6] (ATCC 9027).
As to `CCCCCCCC(=O)N[C@@H](Cc1c[nH]c2ccccc12)C(=O)N[C@@H](CCCCN)C(=O)N[C@@H](CCCCN)C(=O)N[C@@H](CC(C)C)C(=O)N[C@@H](CCCCN)C(=O)N[C@@H](CCCCN)C(=O)N[C@@H](CC(C)C)C(=O)N[C@@H](CC(C)C)C(=O)N[C@@H](CCCCN)C(=O)N[C@@H](CCCCN)C(=O)N[C@@H](CC(C)C)C(N)=O` [pepD3O] (Octanoyl-WKKLKKLLKKL-NH2), the MBC came to 8 µg/mL (≈ 5.16 µM) in [2], 16 µg/mL (≈ 10.3 µM) in [3] and 8 µg/mL (≈ 5.16 µM) in [4]. Also, the values for the MIC in [2], in assay [3] and in assay [4] were 8 µg/mL (≈ 5.16 µM), 16 µg/mL (≈ 10.3 µM) and 8 µg/mL (≈ 5.16 µM), respectively.
In the case of `CC(=O)N[C@@H](Cc1c[nH]c2ccccc12)C(=O)N[C@@H](CCCN)C(=O)N[C@@H](CCCN)C(=O)N[C@@H](CC(C)C)C(=O)N[C@@H](CCCN)C(=O)N[C@@H](CCCN)C(=O)N[C@@H](CC(C)C)C(=O)N[C@@H](CC(C)C)C(=O)N[C@@H](CCCN)C(=O)N[C@@H](CCCN)C(=O)N[C@@H](CC(C)C)C(=O)N[C@@H](CCCN)C(=O)N[C@@H](CCCN)C(=O)N[C@@H](CC(C)C)C(N)=O` [pepO2, Ac-WOOLOOLLOOLOOL-NH2] (Ac-W[Orn][Orn]L[Orn][Orn]LL[Orn][Orn]L[Orn][Orn]L-NH2), the MBC in assay [2], in [3] and in assay [4] was 32 µg/mL (≈ 18.6 µM) throughout. In addition, the minimum inhibitory concentration (MIC) in [2] was 32 µg/mL (≈ 18.6 µM); in assay [3], 16 µg/mL (≈ 9.28 µM); in [4] it was 32 µg/mL (≈ 18.6 µM).
In the case of Ac-WKKIKKIIKKIKKI-NH2 [pepI2], the minimum bactericidal concentration (MBC) in assay [2] worked out at 32 µg/mL; in [7] it was 5.3 µg/mL; in assay [5] (setting [11]) it was 16 µg/mL; in assay [8], 16.0 µg/mL; in [9] it was 1.8 µg/mL; in assay [3], 32 µg/mL. For the same compound, the MBC stood at 32 µg/mL in assay [4] and 4 µg/mL in assay [6] (ATCC 9027). Further, the MIC was determined as 16 µg/mL in assay [2]; 5.3 µg/mL in assay [7]; 8 µg/mL in assay [5] (setting [11]); 16.0 µg/mL in assay [8]; 1.5 µg/mL in assay [9]; 16 µg/mL in [3]. Besides, the values for the MIC in assay [4] and in assay [6] (ATCC 9027) were 32 µg/mL and 4 µg/mL, respectively.
In assay [6] (ATCC 9027), Ac-WKKLHKLLKKL-NH2 [pepD3-5H] had a minimum bactericidal concentration (MBC) of 8 µg/mL and an MIC of 4 µg/mL.
The like results for Ac-WKKLKKALKKL-NH2 [pepD3-7A] were, in that order, 8 µg/mL and 4 µg/mL.
The corresponding values for Ac-WKKLKKFLKKL-NH2 [pepD3-7F] are 8 µg/mL and 4 µg/mL.
On to Ac-WKKLKKILKKL-NH2 [pepD3-7I], for which, in assay [6] (ATCC 9027), the MBC was 4 µg/mL and the minimum inhibitory concentration (MIC) stood at 4 µg/mL.
Turning to Ac-WKKLKKMLKKL-NH2 [pepD3-7M], in [6] (ATCC 9027), the MBC is 8 µg/mL and the MIC was 4 µg/mL.
In assay [6] (setting [12]), Ac-WKKLRKLLKKL-NH2 [pepD3-5R] returned an MBC of 8 µg/mL and a minimal inhibitory concentration (MIC) of 4 µg/mL.
In assay [7], Ac-WKKVKKVVKKVKKV-NH2 [pepV2] registered an MBC of 32.0 µg/mL and a minimal inhibitory concentration (MIC) of 32.0 µg/mL.
Ac-WRRLRRLLRRLRRL-NH2 [pepR2]: the minimum bactericidal concentration (MBC) in assay [2] was determined as 16 µg/mL; in assay [3] it was 32 µg/mL; in assay [4], 16 µg/mL. Moreover, the figures for the MIC in [2], in assay [3] and in assay [4] were 16 µg/mL, 32 µg/mL and 16 µg/mL, respectively.
Turning to “Stearyl-WKKLKKLLKKLKKL-NH2 (stearyl-WKKLKKLLKKLKKL-NH2) [pepD2S, 11]”, in [10], the MFC result is on record as “— (“—” indicates no antimicrobial activity being detected at the highest peptide concentration (32 μg/mL) tested in this study.)” and the MIC entry is given as “— (“—” indicates no antimicrobial activity being detected at the highest peptide concentration (32 μg/mL) tested in this study.)”. Also, in assay [1] (setting [13]), the MFC entry was “— (“—” indicates no antimicrobial activity being detected at the highest peptide concentration (32 μg/mL) tested in this study.)” and the MIC entry is “— (“—” indicates no antimicrobial activity being detected at the highest peptide concentration (32 μg/mL) tested in this study.)”.
